Here are results for two compounds from paper PMC12621189, “Optimization of Selective and CNS Penetrant Alkyne-Based TREK Inhibitors: The Discovery and Characterization of ONO-9517601 (VU6022856) and ONO-7927846 (VU6024391)” (Journal of Medicinal Chemistry, 2025).

Structures are written as SMILES. pIC50: −log10 of the molar value. Values joined by “and” are separate entries in the source; they are usually repeats but may differ in a detail not shown here. Identical values can stand only once. Bounds are passed on as bounds.

The target of one series is T1, adenosine A3 (Homo sapiens, UniProt P0DMS8).
T1 construct: purchased Eurofins
T1 sequence (P0DMS8 1-318): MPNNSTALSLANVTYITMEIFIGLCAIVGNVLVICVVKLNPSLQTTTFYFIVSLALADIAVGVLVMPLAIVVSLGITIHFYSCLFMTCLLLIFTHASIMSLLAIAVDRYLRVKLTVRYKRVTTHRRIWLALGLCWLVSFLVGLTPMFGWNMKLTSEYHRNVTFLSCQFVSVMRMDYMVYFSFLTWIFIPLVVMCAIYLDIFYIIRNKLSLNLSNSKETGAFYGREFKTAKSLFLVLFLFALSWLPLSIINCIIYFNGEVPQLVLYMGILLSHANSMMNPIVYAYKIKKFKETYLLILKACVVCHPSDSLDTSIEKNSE
The series is described as follows: Radioligand binding, adenosine A3. Particulars: for pIC50: follow-up binding; for inhibition at 10 µM: radioligand binding displacement.

Another series has as its target mouse TREK-1 (Mus musculus, UniProt P97438). Nature of the series: mouse TREK-1 thallium flux. Particulars: read-out: TREK-1 IC50 (mouse, Tl+). It counts as cell-based.
Another series has as its target Kv1.5 (Homo sapiens, UniProt P22460). The series is described as follows: MPC ion channel panel, Kv1.5. It counts as cell-based.
In a further series the target is T2, human TREK-2 (Homo sapiens, UniProt P57789).
T2 construct: expressed in transfected cells
Nature of the series: hTREK-2 manual patch clamp assay. It counts as cell-based. Particulars: human TREK-2, manual patch clamp; read-out: TREK-2 IC50 (human, MPC). The method, then:
compounds were dissolved into the bathing solution. The effects of test compound on the currents were calculated at 0 mV using the following equations:
% inhibition = (1-post current/pre current) x 100
% inhibition vs compound concentrations were plotted in GraphPad Prism and calculated IC50. […]
hTREK-2 patch clamp assay
HEK293 cells stably expressing human TREK-2 are plated on glass coverslips, and voltage clamped in the whole-cell configuration of the patch clamp technique. Cells are voltage clamped at a holding potential of -80 mV and the stepped to 0 mV for 500 msec. The voltage is subsequently ramped from -120mV to +80 mV over a 500 msec duration. This step-ramp protocol is repeated every 10 sec. The bathing solution contained the following: 135 mM NaCl, 5 mM KCl, 2 mM CaCl2, 1 mM MgCl2, 5 mM D-Glucose, 10 mM HEPES, 10 mM sucrose (adjusted to pH 7.4 with NaOH, 300 mosmol/kg H2O). The pipette solution contained the following: 135 mM KCl, 2 mM MgCl2, 1 mM EGTA, 10 mM HEPES, 2 mM Na2ATP (adjusted to pH 7.35 with KOH, 285 mosmol/kg H2O). Test compounds are dissolved into the bathing solution. Experiments are terminated with the addition of the control compound (tert-butyl (3-((4-(benzyloxy)-2-methylphenyl)carbamoyl)-4-chlorophenyl)carbamate) so that maximal inhibition can be determined. The effects of test compound on the currents can be calculated at 0 mV using the […]
In general terms: Patch clamp records ionic current or voltage across a cell membrane.

Series [1] in a line: Brain homogenate binding, rat. It is filed as in vitro ADME. Conditions: bound. The method, then:
concentration), which was aliquoted in triplicate to the ‘bottom half’ of the prepared HTD plate wells. The HTD plate was sealed and incubated for 6 hours at 37 °C. Following incubation, each well (both top and bottom halves) were transferred (20 µL) to the corresponding wells of a 96-shallow-well (V-bottom) plate. The daughter plates were then matrix-matched (DPBS side wells received equal volume of plasma, and plasma side wells received equal volume of DPBS), and extraction solution (120 µL; acetonitrile containing 50 nM carbamazepine as IS) was added to all wells of both daughter plates to precipitate protein and extract test article. […]
The unbound fraction (f u) was calculated following the equation below, and mean values for each species were calculated from 3 replicates.
A similar approach was used to determine the degree of brain homogenate binding, which employed the same methodology and procedure with the following modifications: 1) a final compound concentration of 1 μM was used, 2) naïve rat brains were homogenized in DPBS (1:3 composition of brain: DPBS, w/w) using a Mini-Bead Beater™ machine in order to obtain brain homogenate, which was then treated in the same manner as the plasma samples in the previously described plasma protein binding assay. Fraction unbound for both plasma and brain samples was determined using Equation 4. […]

The next series addresses T3, rat TREK-1 (Rattus norvegicus, UniProt Q920B6).
T3 sequence (Q920B6 1-426): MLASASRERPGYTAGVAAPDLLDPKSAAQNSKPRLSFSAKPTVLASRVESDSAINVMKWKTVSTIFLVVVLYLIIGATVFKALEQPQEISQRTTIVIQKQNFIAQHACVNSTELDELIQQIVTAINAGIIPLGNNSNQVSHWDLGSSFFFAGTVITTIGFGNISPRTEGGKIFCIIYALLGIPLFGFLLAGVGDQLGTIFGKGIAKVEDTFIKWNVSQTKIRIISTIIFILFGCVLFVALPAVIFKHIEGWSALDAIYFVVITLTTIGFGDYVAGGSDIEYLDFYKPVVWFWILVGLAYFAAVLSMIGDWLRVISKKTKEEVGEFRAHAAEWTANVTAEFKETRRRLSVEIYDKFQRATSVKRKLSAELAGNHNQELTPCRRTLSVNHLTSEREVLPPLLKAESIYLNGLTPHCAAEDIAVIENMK
The series is described as follows: rat TREK-1 manual patch clamp. It counts as cell-based. Conditions: read-out: TREK-1 IC50 (rat, MPC).

T2 sequence (P57789 whole entry): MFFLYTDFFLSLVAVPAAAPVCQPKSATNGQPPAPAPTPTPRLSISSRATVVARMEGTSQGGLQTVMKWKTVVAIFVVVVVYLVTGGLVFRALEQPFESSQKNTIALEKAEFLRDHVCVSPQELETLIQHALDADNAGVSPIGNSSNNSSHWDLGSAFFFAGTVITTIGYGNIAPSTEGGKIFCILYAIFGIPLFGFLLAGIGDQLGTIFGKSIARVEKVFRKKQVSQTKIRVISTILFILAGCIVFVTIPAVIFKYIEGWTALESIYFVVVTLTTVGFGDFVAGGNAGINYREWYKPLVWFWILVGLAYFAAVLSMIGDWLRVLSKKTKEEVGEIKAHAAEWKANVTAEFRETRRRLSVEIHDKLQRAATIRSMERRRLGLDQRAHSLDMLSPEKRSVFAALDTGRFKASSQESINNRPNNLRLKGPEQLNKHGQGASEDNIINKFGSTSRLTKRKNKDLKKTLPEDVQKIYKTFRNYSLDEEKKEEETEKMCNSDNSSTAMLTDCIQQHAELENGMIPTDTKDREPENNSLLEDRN
Chain of Kv1.5 (P22460 whole entry): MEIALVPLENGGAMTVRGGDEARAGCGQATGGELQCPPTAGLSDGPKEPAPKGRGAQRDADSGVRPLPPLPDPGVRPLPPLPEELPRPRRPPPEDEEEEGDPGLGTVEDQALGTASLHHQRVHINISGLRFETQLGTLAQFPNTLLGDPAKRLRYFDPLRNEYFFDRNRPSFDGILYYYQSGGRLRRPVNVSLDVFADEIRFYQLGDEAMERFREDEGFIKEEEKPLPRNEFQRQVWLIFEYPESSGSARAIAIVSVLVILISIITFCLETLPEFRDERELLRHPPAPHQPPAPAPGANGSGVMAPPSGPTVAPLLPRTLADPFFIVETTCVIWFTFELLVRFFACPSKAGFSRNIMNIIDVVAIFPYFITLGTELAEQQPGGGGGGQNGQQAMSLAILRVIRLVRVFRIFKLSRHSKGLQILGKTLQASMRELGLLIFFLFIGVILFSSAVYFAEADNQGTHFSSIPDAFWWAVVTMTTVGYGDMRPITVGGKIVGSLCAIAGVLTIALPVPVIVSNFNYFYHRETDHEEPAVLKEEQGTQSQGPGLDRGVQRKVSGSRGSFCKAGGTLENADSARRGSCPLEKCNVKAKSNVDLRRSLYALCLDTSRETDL
Chain of mouse TREK-1 (P97438 whole entry): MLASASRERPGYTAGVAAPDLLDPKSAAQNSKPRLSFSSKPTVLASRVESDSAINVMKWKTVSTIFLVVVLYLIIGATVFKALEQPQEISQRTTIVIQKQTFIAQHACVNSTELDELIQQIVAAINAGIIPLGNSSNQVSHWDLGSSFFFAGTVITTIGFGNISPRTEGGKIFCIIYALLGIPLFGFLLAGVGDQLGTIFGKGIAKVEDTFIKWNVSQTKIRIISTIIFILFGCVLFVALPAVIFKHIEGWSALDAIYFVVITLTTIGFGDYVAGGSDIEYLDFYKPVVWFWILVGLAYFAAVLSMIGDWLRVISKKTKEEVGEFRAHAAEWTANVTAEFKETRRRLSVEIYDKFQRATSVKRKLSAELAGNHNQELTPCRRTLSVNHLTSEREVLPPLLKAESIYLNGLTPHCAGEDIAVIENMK

As to `CC(=O)N1CCC(n2ncc(Cl)c2C(=O)Nc2ncc(C#Cc3ccccc3)cc2C)CC1` [Compound 10, 1-(1-Acetylpiperidin-4-yl)-4-chloro-N-(3-methyl-5-(phenylethynyl)pyridin-2-yl)-1H-pyrazole-5-carboxamide], the negative logarithm of the IC50 (pIC50) at adenosine A3 was 6.42; on mouse TREK-1, 6.64; on human TREK-2, 7.09; on rat TREK-1, 7.06. The inhibition at 10 µM was 98% at adenosine A3 and at most 50% on Kv1.5. Further, the BHB rat in series [1] is 99.5% and 99.5, 99.5%.
In the case of `CC(=O)N1CC[C@@H](n2ncc(Cl)c2C(=O)Nc2ncc(C#Cc3ccc(F)cc3)cc2C)[C@H](F)C1` [Compound 11, 1-((3R,4R)-1-Acetyl-3-fluoropiperidin-4-yl)-4-chloro-N-(5-((4-fluorophenyl)ethynyl)-3-methylpyridin-2-yl)-1H-pyrazole-5-carboxamide], the pIC50 was 6.11 on adenosine A3, 6.36 on mouse TREK-1, 6.96 at human TREK-2 and 6.70 on rat TREK-1. Besides, the results for the inhibition at 10 µM on adenosine A3 and at Kv1.5 were 91% and at most 50%, respectively. For the same compound, the BHB rat in series [1] turned out to be 99.4%.

As usually defined, the pIC50 is the IC50 on a negative log10 scale, so that one unit is a factor of ten. In general, inhibition refers to the drop in the measured response relative to a control, in per cent. Lower therefore signals little suppression.
